Results from patent publication US20080269348A1, “Novel Arylbicyclo[3.1.0]Hexylamines And Methods And Compositions For Their Preparation And Use” (priority 2006, published 2008).

How the values were obtained:
[1] = biological target: T1, norepinephrine (NE) uptake (Rattus norvegicus, UniProt Q63380); assay: Inhibition of [3H]NE uptake in rat hypothalamus synaptosomes; type: biochemical; settings: 500 nM, 20 min at 37° C.
T1 construct: synaptosomal preparations were made from either whole brain (5-HT), striatum (DA) or hypothalamus (NE); from tissue; host or cells: rat hypothalamus synaptosomes
Protocol: (§1) The effects of arylbicyclo[3.1.0]hexylamines of the invention for inhibiting transport of norepinephrine (NE) and/or dopamine (DA) and/or serotonin (5-HT) were evaluated using preparations of synaptosomes from different regions of the rat brain according to previously-reported techniques.
(§2) Whole brains were obtained from normal rats, and synaptosomal preparations were made from either whole brain (5-HT), striatum (DA) or hypothalamus (NE) by gentle disruption in 10 volumes (w/v) of 0.32 M sucrose (0-4° C.) using a Teflon-glass homogenizer. The homogenate was then centrifuged at 1000×g for 10 min. The supernatant was retained and centrifuged at 23000 g for 20 min. The resulting pellet was gently resuspended in 200 volumes of 0.32 M sucrose (0-4° C.) using a teflon-glass homogenizer. Aliquots (250 μL) of this preparation were added to tubes, along with 0.2 μCi/mL of [^3H]5-HT, [^3H]DA, or [^3H]NE, 200 μL of selected 1-arylbicyclo[3.1.0]hexanamine test compounds (to yield final concentrations of 500 nM) and 1 mL of Krebs-Ringer bicarbonate buffer (pH 7.4). […] At the end of this period, the assay was terminated by rapid filtration over Whatman GF/C glass fiber filters. The filters were rinsed 3 times with 4 ml of Krebs-Ringer bicarbonate buffer (0-4° C.), and the radioactivity retained on the filters was measured by liquid scintillation spectrometry.

dopamine (DA) uptake = biological target: T2, dopamine (DA) uptake (Rattus norvegicus, UniProt P23977); assay: biochemical; settings: read-out: Uptake Inhibition % at 500 nM DA
T2 construct: synaptosomal preparations were made from either whole brain (5-HT), striatum (DA) or hypothalamus (NE); from tissue; host or cells: rat striatum synaptosomes
Protocol: as §1, §2

serotonin (5-HT) uptake = biological target: T3, serotonin (5-HT) uptake (Rattus norvegicus, UniProt P31652); assay: biochemical; settings: read-out: Uptake Inhibition % at 500 nM 5-HT
T3 construct: synaptosomal preparations were made from either whole brain (5-HT), striatum (DA) or hypothalamus (NE); from tissue; host or cells: rat whole brain synaptosomes
Protocol: as §1, §2

T3 sequence (P31652 whole entry): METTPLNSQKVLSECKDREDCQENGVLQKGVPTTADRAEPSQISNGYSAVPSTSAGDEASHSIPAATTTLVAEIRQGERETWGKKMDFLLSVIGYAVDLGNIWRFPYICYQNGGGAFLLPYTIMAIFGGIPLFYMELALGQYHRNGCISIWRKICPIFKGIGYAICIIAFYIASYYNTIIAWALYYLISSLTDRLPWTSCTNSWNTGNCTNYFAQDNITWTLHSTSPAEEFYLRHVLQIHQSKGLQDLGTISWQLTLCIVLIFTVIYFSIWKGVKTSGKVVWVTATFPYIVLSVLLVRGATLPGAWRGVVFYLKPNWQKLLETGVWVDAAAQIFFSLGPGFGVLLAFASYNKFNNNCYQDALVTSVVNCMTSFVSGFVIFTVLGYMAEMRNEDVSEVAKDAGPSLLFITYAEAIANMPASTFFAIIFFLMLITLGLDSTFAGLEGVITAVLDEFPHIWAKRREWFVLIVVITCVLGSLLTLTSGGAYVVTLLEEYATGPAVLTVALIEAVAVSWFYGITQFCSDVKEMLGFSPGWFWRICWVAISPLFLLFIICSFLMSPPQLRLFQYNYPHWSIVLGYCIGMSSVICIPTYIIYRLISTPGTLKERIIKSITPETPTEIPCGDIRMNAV
T1 sequence (Q63380 1-617): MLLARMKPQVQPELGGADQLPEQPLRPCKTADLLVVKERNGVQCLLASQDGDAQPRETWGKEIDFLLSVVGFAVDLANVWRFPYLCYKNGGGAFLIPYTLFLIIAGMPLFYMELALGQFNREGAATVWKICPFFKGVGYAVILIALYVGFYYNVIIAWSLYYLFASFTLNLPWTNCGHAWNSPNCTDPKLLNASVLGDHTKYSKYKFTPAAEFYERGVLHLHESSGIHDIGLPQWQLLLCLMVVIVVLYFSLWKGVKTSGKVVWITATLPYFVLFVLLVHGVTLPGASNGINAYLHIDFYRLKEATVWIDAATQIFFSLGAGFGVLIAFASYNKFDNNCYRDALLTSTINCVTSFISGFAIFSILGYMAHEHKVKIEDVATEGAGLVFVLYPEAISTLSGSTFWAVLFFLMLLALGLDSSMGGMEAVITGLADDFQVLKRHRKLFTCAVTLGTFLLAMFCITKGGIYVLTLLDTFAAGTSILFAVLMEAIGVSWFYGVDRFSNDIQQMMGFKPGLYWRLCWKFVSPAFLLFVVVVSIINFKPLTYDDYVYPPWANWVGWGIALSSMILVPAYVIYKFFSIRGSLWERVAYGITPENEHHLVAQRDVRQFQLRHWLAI
T2 sequence (P23977 whole entry): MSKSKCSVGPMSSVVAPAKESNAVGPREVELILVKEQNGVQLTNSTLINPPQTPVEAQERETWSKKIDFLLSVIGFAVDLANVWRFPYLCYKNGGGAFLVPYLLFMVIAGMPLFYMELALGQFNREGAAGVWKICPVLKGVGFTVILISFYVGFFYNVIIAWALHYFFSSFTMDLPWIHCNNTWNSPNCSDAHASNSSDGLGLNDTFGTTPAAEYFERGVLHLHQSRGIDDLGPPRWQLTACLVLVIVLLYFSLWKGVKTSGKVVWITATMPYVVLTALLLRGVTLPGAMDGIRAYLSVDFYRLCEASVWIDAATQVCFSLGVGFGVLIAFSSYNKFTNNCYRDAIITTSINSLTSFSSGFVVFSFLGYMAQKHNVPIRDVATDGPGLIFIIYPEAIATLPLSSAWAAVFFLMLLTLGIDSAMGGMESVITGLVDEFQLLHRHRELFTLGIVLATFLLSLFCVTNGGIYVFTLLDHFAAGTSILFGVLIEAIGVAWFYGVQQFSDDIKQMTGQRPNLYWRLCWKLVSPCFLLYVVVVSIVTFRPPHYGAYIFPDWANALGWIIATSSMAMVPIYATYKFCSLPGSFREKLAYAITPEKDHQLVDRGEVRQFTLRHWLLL

SMILES | inhibition at 0.5 µM [1] | inhibition at 0.5 µM (dopamine (DA) uptake) | inhibition at 0.5 µM (serotonin (5-HT) uptake)
NC1C[C@H]2C[C@]2(c2ccc(Cl)c(Cl)c2)C1 (stereo partly drawn) | 59% | 83% | 75%
NC1C[C@H]2C[C@]2(c2cccc3ccccc23)C1 (stereo partly drawn) [5-p-tolylbicydo[3.1.0]hexan-2-amine] | 42% | 39% | 74%
